Measurements as given in the OPERA property sets (Mansouri et al. 2018).

Row | Structure (SMILES) | logP
1 | CC(C)C1(C)C(=O)NC(=O)NC1=O | 0.54
2 | CCC1(CC)C(=O)NC(=S)NC1=O | 1.5
3 | CC(C)(C)C1(Cl)C(=O)NC(=O)NC1=O | 0.82
4 | C=CCC1(C(C)(C)C)C(=O)NC(=O)NC1=O | 1.64
5 | CCCC1(CCC)C(=O)NC(=O)NC1=O | 1.75
6 | CCCC1(CCC)C(=O)NC(=S)NC1=O | 2.66
7 | CC(C)C1C(=O)NC(=O)NC1=O | -0.02
8 | CCC(C)C1(CC)C(=O)NC(=O)NC1=O (stereo not drawn) | 1.65
9 | CCC1(C(C)(C)C)C(=O)NC(=O)NC1=O | 1.38
10 | CC(C)C1(C(C)C)C(=O)NC(=O)NC1=O | 1.56
11 | CC(C)(C)C1(C)C(=O)NC(=O)NC1=O | 0.8
12 | CC(C)(C)C1C(=O)NC(=O)NC1=O | 0.28
13 | CCCCC1(CCCC)C(=O)NC(=O)NC1=O | 2.7
